From a melting point compilation (Tetko et al.; mined from patent text by program, amines drawn as free bases though some values may be those of a salt)
Residues, ends and D or L forms follow the SMILES beside them. *: point of attachment. Cbz = O=C(OCc1ccccc1)*

Compound	melting point [°C]
Cn1c(C(F)(F)F)cc(=O)n(-c2cc(S(=O)(=O)NC(=O)OCc3ccccc3)c(Cl)cc2F)c1=O	231 to 232
O=C1C(=O)c2ccccc2C2=C1SCC(CN1CCN(c3ccc(F)cc3)CC1)O2 (stereo not given)	180 to 182
Nc1ccc(C(c2ccc(F)cc2)n2ccnc2)cc1[N+](=O)[O-] (stereo not given)	147
N#CCCN1CCC(C2c3ccccc3C=Cc3ccccc32)CC1	165 to 168
NC(=S)Nc1ccc2ccccc2c1	190 to 192
CC(=O)Nc1ccc(-c2cccc(C3=NC(C)(C)Cc4ccc5c(c43)CC(C)(C)O5)c2)cc1	198 to 200
O=C(NCC1(c2ccccc2)CCCCC1)Nc1ccccc1	162 to 164
Cc1cc(S(=O)(=O)Nc2onc(C)c2Br)c(C)s1	77 to 80
O=C(CCl)NC1CCCc2sccc21 (stereo not given)	115 to 119
CS(=O)C(C)(O)c1ccc(-c2ccccc2)cc1 (stereo not given)	160 to 162
CC(=O)c1cscc1O	44 to 47
O=C1Nc2ccc(Cl)cc2C1(Cl)c1cccc(F)c1F (stereo not given)	248
CCN(CC1CCCC1)c1nc2ccccc2cc1CN(Cc1cc(C(F)(F)F)cc(C(F)(F)F)c1)C(N)=S	98
COc1ccc(CNc2nccc(-c3c[nH]nc3-c3ccc(F)cc3)n2)cc1	183 to 185
Oc1ccc(O)c2c1CC(O)C(O)C2 (stereo not given)	221 to 224
CC(Cc1cc(C(=O)c2ccccc2)ccc1OC(=O)C(C)(C)C)C(=O)O (stereo not given)	119 to 120
CN1C(=O)CCc2cccc(N3CCN(CCCCOc4ccc5c(n4)NC(=O)NCC5)CC3)c21	80 to 82
c1ccc(Sc2cc(-c3ccccc3)n[nH]2)cc1	99 to 100
CCOC=CC(=O)Nc1cccc(C(=O)OC)c1	108 to 110
CCOC(=O)c1c(NCCCN(C)C)c2ccc(C)nc2n(CC)c1=O	75
COC(=O)c1cc(-c2nn(C)c(SC)c2C)c(F)cc1Cl	82 to 83
COC(=O)C[C@H]1C[C@@H](CCc2c(-c3ccc(F)cc3)c(-c3ccc(F)cc3)cn2C(C)C)OC(C)(C)O1	55 to 57
CCOC(=O)c1cn(-c2ccc(C(F)(F)F)cn2)nc1C	88 to 89
CC(=Cc1ccccc1)C(=O)c1ccc(O)c(CC(=O)O)c1	192

Compound	melting point [°C]
O=S1(=O)c2cccc3cccc(c23)N1CCN1CCN(c2noc3ccccc23)CC1	148
CC(C)S(=O)(=O)C1=CC=CN(Cl)C1	82 to 84
COc1cc(C)c2ccc(N)nc2n1	233 to 236
O=C(c1ccc(F)cc1)c1cccc(C(=O)c2ccc(F)cc2)c1	178
CNC(=O)c1cccc(F)c1Nc1nc(Nc2ccc3c(c2)N(CCOC)C(=O)CCC3)ncc1Br	211 to 224
CCOC(=O)C1=CCCCC1S(=O)(=O)Nn1cccc1C1CC1 (stereo not given)	95 to 96
Cn1c(=O)c2c(ncn2CC(O)CN2CCN(CCCS(=O)(=O)c3ccccc3)CC2)n(C)c1=O (stereo not given)	168
CC1=NN(c2cccc(C(=O)O)c2)C(=O)C1=c1[nH]c(=c2[nH]c(=C3C(=O)N(c4cccc(C(=O)O)c4)N=C3C)c3ccccc23)c2ccccc12	> 300
CC1(C)CC(=O)Nc2c(CCN3CCN(c4noc5ccccc45)CC3)cc(F)cc21	230
Cc1c(CO)c2c(c(C)c1NC(=O)NC(C)(C)C)C(c1ccc(C(C)C)cc1)CO2 (single isomer, unassigned; (+))	187 to 188
COc1ccc(C(=O)Nc2ccc(C(C)(C)CNC(=O)c3nn(C)cc3Br)cc2)cc1OC	112 to 113
O=c1ccc2c(-n3cccn3)nccc2[nH]1	> 300
C(=Cc1ccc(-c2cnc(CSCCOc3ccccc3)o2)cc1)CN1CCCC1	73 to 75
Cc1cccc(C)c1NS(=O)(=O)c1cc(S(=O)(=O)Nc2c(C)cccc2C)c2cc(O)ccc2c1	162 to 164
CS(=O)(=O)c1ccc(Oc2c(-c3ccc(S(C)(=O)=O)cc3)cnn(CC(F)(F)F)c2=O)cc1	212 to 213
Cc1cc2nc(NC3=NCCN3)[nH]c2cc1C	266
CCOC(=O)c1ccc(NC(=O)C=C2c3ccccc3CCc3ccccc32)cc1	178 to 180
CC(C)(N)c1ccc(-c2nc(Nc3ccc(CCn4ccnc4)cc3)ncc2Cl)cc1F	112 to 120
CC1CCCCC1C(=O)Nc1ccc(-c2cnc(-c3ccc(NC(=O)C4CCCCCC4)cc3)[nH]2)cc1 (stereo not given)	220 to 222
Cc1ccc(NC(=O)OC2CCCCC2)cc1NC(=O)OC1CCCCC1	156
CC1CCN(c2c(-c3ccc(F)cc3Cl)c(C#N)nc3ncnn23)CC1	247
C#CCCOc1cc(N2C(=O)CC(C(F)(F)F)CC2=O)c(F)cc1Cl	89 to 91
CCOC(OCC)c1cccc2c1Sc1ccccc1N2C	44.6 to 46.2
O=P(O)(O)C1(P(=O)(O)O)CCCCN1	70

Compound	melting point [°C]
Nc1ncc(S(=O)c2ccc(F)cc2F)s1 (stereo not given)	171 to 172
Cc1nc(Cn2c(=O)sc3cc(F)c(N=C=O)cc32)no1	125 to 127
COc1nc(Cl)cc(I)c1C=O	120 to 124
CCOC(=O)N(CC)c1c(OC)cc(Cc2cnc(N)nc2N)cc1OC	165 to 167
CCC(=C(c1ccc(O)cc1)c1ccc(O)cc1)c1ccc(/C=C/C(=O)O)cc1	280 to 281
CC(=O)Oc1ccc2c(c1)CCC1C3CCC(=O)C3(C)CC(=O)C21O (stereo not given)	247 to 248
CCC[C@H]1C(=O)N[C@H]2CCN[C@@H]21 (relative stereo)	97 to 100
NC(=O)N[C@H]1CC[C@H](NC(N)=O)CC1	> 320
CCOC(=O)c1ccc(Br)c(OC(F)F)c1Br	45 to 47
COC(=O)[C@H](Cc1c[nH]cn1)NC(=O)[C@H](Cc1ccccc1)NC(=O)[C@H](Cc1ccccc1)NC(=O)OCc1ccccc1 (Cbz-Phe-Phe-His-OMe)	204 to 206
CN1N=C(c2ccc(F)cc2)c2cc3nsnc3cc2CS1(=O)=O	272 to 275
CN(C)c1ccc(Cn2nnc(-c3ccc(OC(=O)C(C)(C)C)c(N(C)C)c3)n2)cc1	73 to 74
O=C(CCl)Nc1ccc2c(c1NC(=O)CSc1ccccc1)C(=O)c1ccccc1C2=O	161 to 162
CSC(=NC(C)=O)Nc1ccccc1[N+](=O)[O-]	120 to 122
Nc1cc(C(=O)OCCN2CCCCC2)c2oc(-c3ccccc3)cc2c1	126 to 128
CCc1nc(C2CC2)c[nH]1	104 to 106
COc1ccc(C=O)c(O)c1O	116 to 117
Cc1nnc2n1-c1sc(C#Cc3ccccc3)cc1C(c1ccccc1Cl)=NC2	215 to 217
CCOC(=O)NC(=NCCCc1c[nH]cn1)NCCSCc1ccccc1	91 to 92
CCOC(=O)C(=O)NNC(=O)c1cc2sc(C)c(N(C)S(=O)(=O)c3cccs3)c2[nH]1	135
CCCCCC(CC(=O)O)c1cc(C(=O)CC)c(OC)cc1OC (stereo not given)	92.5 to 94
CC(S)C(=O)NCc1noc(C(C)c2ccc(-c3ccccc3)c(F)c2)n1 (stereo not given)	94 to 95
